Data: ChEMBL document CHEMBL1143963, “2D QSAR and similarity studies on cruzain inhibitors aimed at improving selectivity over cathepsin L” (Bioorg Med Chem, 2008)

Biological target: Cruzipain (Trypanosoma cruzi, UniProt P25779)
Test: Inhibition of Trypanosoma cruzi cruzain

Cruzipain, sequence (P25779 whole entry): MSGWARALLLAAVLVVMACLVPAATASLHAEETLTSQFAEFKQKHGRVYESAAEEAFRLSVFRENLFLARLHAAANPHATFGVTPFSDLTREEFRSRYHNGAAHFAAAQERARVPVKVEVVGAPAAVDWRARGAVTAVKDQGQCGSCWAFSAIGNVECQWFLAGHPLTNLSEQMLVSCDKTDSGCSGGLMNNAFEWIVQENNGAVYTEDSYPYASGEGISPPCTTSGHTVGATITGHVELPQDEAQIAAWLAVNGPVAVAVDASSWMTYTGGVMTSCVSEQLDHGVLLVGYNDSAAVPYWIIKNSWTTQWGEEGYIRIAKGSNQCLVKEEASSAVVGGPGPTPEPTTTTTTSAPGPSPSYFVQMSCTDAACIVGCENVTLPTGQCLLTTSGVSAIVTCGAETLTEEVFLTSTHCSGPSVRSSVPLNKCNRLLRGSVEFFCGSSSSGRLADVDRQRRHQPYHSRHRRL

Ki [µM] | Compound
> 10 | O=C(N[C@@H](Cc1ccccc1)C(=O)N[C@H](CCO)CCc1ccccc1)OCc1ccccc1
0.00437 | O=C(N[C@@H](Cc1ccccc1)C(=O)N[C@@H](Cc1ccccc1)C(=O)CS)OCc1ccccc1
0.145 | O=C(N[C@@H](Cc1ccccc1)C(=O)N[C@@H](Cc1ccccc1)C(=O)CO)OCc1ccccc1
> 10 | O=C(O)C[C@H](CCc1ccccc1)NC(=O)[C@H](Cc1ccccc1)NC(=O)OCc1ccccc1
> 5.01 | O=C(N[C@@H](Cc1ccccc1)C(=O)N[C@H](CCS)CCc1ccccc1)OCc1ccccc1
